Measured values taken from ChEMBL document CHEMBL4390644, “Synthesis, structure-activity relationship studies and biological characterization of new [1,2,4]triazolo[1,5-a]pyrimidine-based LSD1/KDM1A inhibitors” (Eur J Med Chem, 2019).
Activity calls are given as the source filed them. No cut-off for these calls is given here.

Columns and labels:
[1] = biological target: T1, Lysine-specific histone demethylase 1A (Homo sapiens, UniProt O60341); test: Inhibition of recombinant LSD1 (unknown origin) expressed in Escherichia coli BL21(DE) using H3K4me2 substrate by amplex red and horseradish peroxidase based fluorescence assay
[2] = biological target: T1, Lysine-specific histone demethylase 1A; conditions: 1.6 uM
Description: Irreversible inhibition of recombinant LSD1 (unknown origin) expressed in Escherichia coli BL21(DE) assessed as recovery of enzyme activity at 1.6 uM using H3K4me2 substrate incubated for 1 hr followed by 80 fold dilution by dilution assay

A549 [3] = test: Up regulation of claudin-1 levels in human A549 cells up to 16 uM after 96 hrs by Western blot analysis; format: functional, cell-based
A549 [4] = test: Down regulation of slug levels in human A549 cells up to 16 uM after 96 hrs by Western blot analysis; format: functional, cell-based
A549 [5] = test: Effect on LSD1 expression in human A549 cells up to 16 uM after 96 hrs by Western blot analysis; format: functional, cell-based
A549 [6] = test: Down regulation of snail levels in human A549 cells up to 16 uM after 96 hrs by Western blot analysis; format: functional, cell-based
[7] = biological target: T1, Lysine-specific histone demethylase 1A; test: Binding affinity to LSD1 in human A549 cells assessed as increase in stability of cellular LSD1 protein at 10 uM pre-incubated for 1 hr followed by heating at 52 degC for 3 mins by Western blot-based CESTA; format: cell-based
A549 [8] = test: Antiproliferative activity against human A549 cells assessed as reduction in cell viability at 1.25 to 100 uM measured after 72 hrs by MTT based method; format: functional
A549 [9] = test: Down regulation of N-cadherin levels in human A549 cells up to 16 uM after 96 hrs by Western blot analysis; format: functional, cell-based
A549 [10] = test: Up regulation of E-cadherin levels in human A549 cells up to 16 uM after 96 hrs by Western blot analysis; format: functional, cell-based
[11] = biological target: T1, Lysine-specific histone demethylase 1A; test: Binding affinity to LSD1 in human A549 cells assessed as increase in stability of cellular LSD1 protein at 10 uM pre-incubated for 1 hr followed by heating at 49 degC for 3 mins by Western blot-based CESTA; format: cell-based
A549 [12] = test: Antiproliferative activity against human A549 cells assessed as reduction in cell viability at <40 uM measured after 72 hrs by MTT based method; format: functional
[13] = biological target: T1, Lysine-specific histone demethylase 1A; test: Binding affinity to LSD1 in human A549 cells assessed as increase in stability of cellular LSD1 protein at 10 to 20 uM pre-incubated for 1 hr followed by heating at 46 and 52 degC for 3 mins by Western blot-based CESTA; format: cell-based
[14] = biological target: T1, Lysine-specific histone demethylase 1A; test: Inhibition of LSD1 in human A549 cells assessed as accumulation of H3K9me1 at 8 to 16 uM after 96 hrs by Western blot analysis; format: cell-based
[15] = biological target: T1, Lysine-specific histone demethylase 1A; test: Inhibition of LSD1 in human A549 cells assessed as accumulation of H3K4me2 at 8 to 16 uM after 96 hrs by Western blot analysis; format: cell-based
[16] = biological target: T1, Lysine-specific histone demethylase 1A; test: Inhibition of LSD1 in human A549 cells assessed as accumulation of H3K4me1 at 8 to 16 uM after 96 hrs by Western blot analysis; format: cell-based
[17] = Antioxidant activity assessed as hydrogen peroxide scavenging activity at 10 uM incubated for 30 mins by ferrous ion oxidation-xylenol orange based method; format: functional
[18] = biological target: T1, Lysine-specific histone demethylase 1A; test: Inhibition of LSD1 in human A549 cells assessed as accumulation of H3K9me2 at 8 to 16 uM after 96 hrs by Western blot analysis; format: cell-based
A549 [19] = test: Antiproliferative activity against human A549 cells assessed as reduction in cell viability measured after 72 hrs by MTT based method; conditions: A549, 72 h
A549 [20] = conditions: Homo sapiens, 16 uM
Description: Antimigratory activity in human A549 cells at 16 uM after 48 hrs by Hoechst 33258 staining based transwell assay

MAO-A [21] = biological target: T2, MAO-A (Homo sapiens, UniProt P21397); test: Inhibition of N-terminal FLAG-tagged full length recombinant human MAO-A expressed in Sf9 cells at 1 uM using luciferin derived luminogenic substrate preincubated for 15 mins followed by substrate addition and measured after 60 mins by MAO-Glo assay relative to control; conditions: probe luciferin derived luminogenic substrate
T2 sequence (P21397 whole entry): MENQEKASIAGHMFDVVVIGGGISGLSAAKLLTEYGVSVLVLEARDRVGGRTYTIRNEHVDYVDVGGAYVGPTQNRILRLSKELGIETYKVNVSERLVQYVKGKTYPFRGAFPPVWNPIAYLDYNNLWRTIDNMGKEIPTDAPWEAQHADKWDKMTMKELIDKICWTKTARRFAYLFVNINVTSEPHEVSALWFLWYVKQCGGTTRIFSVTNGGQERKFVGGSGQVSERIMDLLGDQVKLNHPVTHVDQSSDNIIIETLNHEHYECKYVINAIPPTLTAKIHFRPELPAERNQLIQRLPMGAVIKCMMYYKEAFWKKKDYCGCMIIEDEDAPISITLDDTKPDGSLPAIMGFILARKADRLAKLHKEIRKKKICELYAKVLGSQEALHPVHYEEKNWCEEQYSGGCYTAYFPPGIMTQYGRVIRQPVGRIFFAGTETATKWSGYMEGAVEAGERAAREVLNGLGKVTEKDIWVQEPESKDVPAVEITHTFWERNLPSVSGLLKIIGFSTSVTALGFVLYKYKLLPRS

MAO-B [22] = biological target: T3, MAO-B (Homo sapiens, UniProt P27338); test: Inhibition of N-terminal FLAG-tagged full length recombinant human MAO-B expressed in Sf9 cells at 10 uM using luciferin derived luminogenic substrate preincubated for 15 mins followed by substrate addition and measured after 60 mins by MAO-Glo assay relative to control; conditions: probe luciferin derived luminogenic substrate
T3 sequence (P27338 whole entry): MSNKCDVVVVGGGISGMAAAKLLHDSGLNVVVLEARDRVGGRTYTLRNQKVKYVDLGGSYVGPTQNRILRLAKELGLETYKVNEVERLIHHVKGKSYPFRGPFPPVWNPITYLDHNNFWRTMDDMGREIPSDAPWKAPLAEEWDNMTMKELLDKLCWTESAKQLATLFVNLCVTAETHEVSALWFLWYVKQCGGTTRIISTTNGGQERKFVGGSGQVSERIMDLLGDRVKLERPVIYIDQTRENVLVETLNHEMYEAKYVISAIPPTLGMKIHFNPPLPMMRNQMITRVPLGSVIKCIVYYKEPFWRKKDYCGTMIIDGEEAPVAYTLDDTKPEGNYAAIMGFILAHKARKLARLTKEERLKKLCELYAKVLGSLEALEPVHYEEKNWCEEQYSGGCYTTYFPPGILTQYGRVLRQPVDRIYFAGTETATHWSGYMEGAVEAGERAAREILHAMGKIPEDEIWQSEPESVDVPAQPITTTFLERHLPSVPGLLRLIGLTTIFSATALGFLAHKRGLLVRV

MAO-A [23] = biological target: T2, MAO-A; test: Inhibition of N-terminal FLAG-tagged full length recombinant human MAO-A expressed in Sf9 cells at 10 uM using luciferin derived luminogenic substrate preincubated for 15 mins followed by substrate addition and measured after 60 mins by MAO-Glo assay relative to control; conditions: probe luciferin derived luminogenic substrate
Armoracia rusticana = conditions: 10 uM
Description: Inhibition of horseradish peroxidase at 10 uM incubated for 10 mins with presence of H2O2 by absorbance based method relative to control

MAO-B [24] = biological target: T3, MAO-B; test: Inhibition of N-terminal FLAG-tagged full length recombinant human MAO-B expressed in Sf9 cells at 1 uM using luciferin derived luminogenic substrate preincubated for 15 mins followed by substrate addition and measured after 60 mins by MAO-Glo assay relative to control; conditions: probe luciferin derived luminogenic substrate

## Cc1cc(Nc2ccc(N3CCN(C)CC3)cc2)n2nc(SCc3ccccc3[N+](=O)[O-])nc2n1
[1]
  IC50: > 50 µM

## CCCCCc1c(C)nc2nc(SCc3ccc(Cl)cc3)nn2c1Nc1ccc(N2CCN(C)CC2)cc1
[1]
  IC50: > 50 µM

## O=C(O)c1ccc(CN2CCC(CN[C@@H]3C[C@H]3c3ccccc3)CC2)cc1
[2]
  inhibition: inactive

## Cc1cc(Nc2ccc(N3CCN(C)CC3)cc2)n2nc(SCCCc3ccccc3)nc2n1
[1]
  IC50: > 50 µM

## c1ccc([C@@H]2C[C@H]2NC2CCNCC2)cc1
A549 [3]
  Activity: Active
A549 [4]
  Activity: Active
A549 [5]
  Activity: inactive
A549 [6]
  Activity: Active
[7]
  Activity: Active
A549 [8]
  Activity: inactive
A549 [9]
  Activity: Active
A549 [10]
  Activity: Active
[11]
  Activity: Active

## Cc1cc(Nc2ccccc2)n2nc(SCc3nc4ccccc4[nH]3)nc2n1
A549 [12]
  Activity: inactive
A549 [3]
  Activity: inactive
[1]
  IC50: > 50 µM
A549 [4]
  Activity: inactive
A549 [5]
  Activity: inactive
A549 [6]
  Activity: inactive
[13]
  Activity: inactive
A549 [9]
  Activity: inactive
[14]
  inhibition: inactive
[15]
  inhibition: inactive
A549 [10]
  Activity: inactive
[16]
  inhibition: inactive
[17]
  Activity: inactive
[18]
  inhibition: inactive

## Cc1nc2nc(SCc3ccc(Cl)cc3)nn2c(Nc2ccc(N3CCN(C)CC3)cc2)c1C
[1]
  IC50: > 50 µM

## Cc1cc(N)n2nc(SCc3ccccc3)nc2n1
[1]
  IC50: > 50 µM

## Cc1cc(Nc2ccccc2)n2nc(SCc3ccccc3)nc2n1
[1]
  IC50: > 50 µM

## CN1CCN(c2ccc(Nc3cc(-c4ccccc4)nc4ncnn34)cc2)CC1
[1]
  IC50: > 50 µM

## Cc1cc(Nc2ccc(N3CCN(C)CC3)cc2)n2nc(SCC3CC3)nc2n1
[1]
  IC50: > 50 µM

## CN1CCN(c2ccc(Nc3c4c(nc5ncnn35)CCC4)cc2)CC1
[1]
  IC50: > 50 µM

## Cc1cc(Nc2ccc(N3CCN(C)CC3)cc2)n2nc(SCc3nc4ccccc4[nH]3)nc2n1
A549 [19]
  IC50: 23.8 µM
A549 [3]
  Activity: Active
A549 [20]
  inhibition: Active
A549 [4]
  Activity: Active
A549 [5]
  Activity: inactive
MAO-A [21]
  inhibition at 1 h, 1 µM: 13%
A549 [6]
  Activity: Active
A549 [9]
  Activity: Active
A549 [10]
  Activity: Active
MAO-B [22]
  inhibition at 1 h, 10 µM: 34%
MAO-A [23]
  inhibition at 1 h, 10 µM: 40%
[17]
  Activity: inactive
Armoracia rusticana
  inhibition: inactive
MAO-B [24]
  inhibition at 1 h, 1 µM: 18%
